Test results published in patent US8119657B2, “Enantiomeric compositions of 2-amino-1-(2-isopropylpyrazolo[1,5-α]pyridin-3-yl)propan-1-one and related methods” (MediciNova, Inc., priority 2009, dated 2012).
Entries after “also recorded” stand apart in the source; their conditions may differ. Marks after values point to notes of the source that are not given here.

Tests used:
formalin paw model = test: Inflammatory pain model (formalin paw model) in mice; format: in vivo; conditions: mice, 300 mg/kg p.o. 60 min before the test
Protocol: The model employed is described in detail by Wheeler-Aceto et al (Psychopharmacology, 104, p 35-44, (1991)). Briefly, mice were given an intraplantar injection of 5% formalin (25 μl) into the posterior left paw. […] Mice were briefly observed at 1 minute intervals between 15 and 50 minutes after the injection of formalin and the number of times mice were observed licking the injected paw was recorded. 10 mice were studied in each group. The test was performed blind.
AV1013-S was evaluated at 3 doses (10, 25 and 50 mg/kg), administered p.o. 60 minutes before the test (i.e. 45 minutes before formalin), and compared with a vehicle control group. Gabapentin (300 mg/kg p.o.), administered under the same experimental conditions, was used as reference substance. The experiment therefore included 5 groups.
Data were analyzed by comparing treated groups with vehicle control using unpaired Mann-Whitney U tests.

[1] = Chiral and chemical stability in solution and on storage; format: physicochemical
Source text: Without ascribing to any particular theory, the present inventors believe that the facile separation of enantiomers using the N-protected racemate of AV1013 is probably due to the greater stability of the racemate as well as the separate enantiomers in protected form. […] Unstability also stems from the ability of the free base to self condense. Because self-condensation is promoted in concentrated solutions, it is desirable to avoid highly concentrated solutions of the free base form of optically active AV1013. Likewise, the free base form of racemic AV1013 or its hydrochloride salt are also unstable, precluding their use as precursors to obtaining (S)-AV1013 as a free base or its hydrochloride salt in high yield and/or high purity.
Thus, it is often desirable to re-purify the de-protected product using purification techniques known in the art. For example, any one or more of the methods described above for separating chiral molecules, such as, chromatography (e.g., HPLC, GC, and SFC), crystallization, fractional crystallization, and the like may be used for re-purification. An exemplary method is recrystallization. Purification by recrystallization allows separation of the desired (S)-enantiomer in high purity, such that the overall reaction sequence including isolation of the desired (S)-enantiomer requires only a single chromatographic step (i.e., the chiral separation). Recrystallization can be carried out in any of a number of single or mixed solvent systems including alcohols, ethers, esters, nitriles, halogenated hydrocarbons, amides and aqueous mixtures thereof. Suitable solvents include methanol, ethanol, propanol, iso-propanol, acetone, tetrahyrofuran, methyl ethyl ketone, methyl isobutyl ketone, ethyl acetate, amyl acetate, acetonitrile, diethyl ether, methyl tert-butyl ether, dichloromethane, dichloroethane, chloroform, dimethylformamide, and combinations thereof. Illustrative mixed solvent systems used to recrystallize (S)-AV1013 are iso-propanol/methyl tert-butyl ether and ethanol/methyl tert-butyl ether.
The five-step route provided a 15% overall yield of (S)-AV1013.HCl. The chiral separation, by SFC chromatography, is the only chromatographic step required. Hydrolysis of the N-protected (S)-AV1013, followed by recrystallization from iso-propanol/methyl tert-butyl ether provided (S)-AV1013.HCl in greater than 99% chemical purity and greater than 97% S-enantiomer (greater than 94% enantiomeric excess (ee)) by chiral HPLC, as determined from the equation ee=[|R−S^51÷(R+S)]×100 ee=[|R−S|÷(R+S)]×100. […] Even under optimal storage and handling conditions to minimize exposure to moisture, a small degree of racemization (i.e., approximately 2%) was observed. Recrystallization was effective to improve enantiomeric purity to arrive at a product having an illustrative chiral purity as described above. […] The recrystallized (S)-AV 1013.HCl contained approximately 25 mole percent alcohol (less than about 10% by weight) even when dried at 50° C. Thus, it appears that the resultant product is formed as a solvate under the recrystallization and drying conditions employed.

[2] = system: rat chronic constriction injury model of neuropathic pain; test: Rat chronic constriction injury model of neuropathic pain (von Frey mechanical allodynia); format: in vivo; conditions: for in vivo activity in a rat model of neuropathic pain: dose not stated
Source text: The (S)- and the (R)-enantiomer of AV1013 were each evaluated in a rat chronic constriction injury model of neuropathic pain (see, Ledeboer et. al., Neuron Glia Biology, (2006), p 279-291), to determine whether differences in their activity could be observed.
To induce allodynia, male Sprague-Dawley rats underwent chronic constriction injury (CCI) to the sciatic nerve as described by Bennett and Xie, Pain 1988; 33(1):87-107. The plantar surface of the hind paws was stimulated with von Frey filaments (Stoelting) to induce a withdrawal response by blinded personnel. The bending force of fiber required to induce a 50% withdrawal response was calculated following CCI surgery (pre-dosing baseline).
Allodynic rats (N=5-6), received an oral administration of (S)-AV1013 (25 mg/kg), AV1013-R (100 mg/kg) or vehicle. Two hours post-dosing, 50% paw withdrawal threshold was determined by blinded testers using von Frey filaments. The 50% withdrawal threshold prior to CCI surgery, pre-dosing (10 days post-surgery), and 2 hours post-dosing are plotted in FIG. 3.

Rolipram binding site = test: Inhibition of binding at the Rolipram binding site; conditions: 10 uM
[3] = Rat pharmacokinetics of the enantiomers after oral dosing of racemic AV1013; format: in vivo
Protocol: Three male Sprague-Dawley rats were dosed orally via gavage with 25 mg/kg racemic AV1013 dissolved in water. Serial blood samples were collected from the tail vein at 5, 15, and 30 min, 1, 3, and 6 hours post dosing. Samples were processed for plasma via centrifugation and plasma samples were stored frozen prior to analysis.
(§1) A sensitive and specific chiral HPLC/MS/MS bioanalytical method for the detection of (S)-AV1013 and (R)-AV1013 enantiomers in rat and dog plasma was utilized. AV1013 enantiomers and the internal standard (AV1040, an analog of AV1013) were isolated from plasma by protein precipitation induced by acetonitrile. After centrifugation to sediment the proteins, the supernatant fractions were analyzed by high performance liquid chromatography (LC) in conjunction with a triple quadrupole mass spectrometer that used electrospray ionization in tandem with positive ionization (MS/MS) according to the conditions below. The LLOQ (lower level of quantitation) was typically <3 ng/mL.
(§2) Analysis of pharmacokinetic parameters was performed for each enantiomer via LC/MS bioanalytics and WinNonlin™ analysis (version 4.0.1; Pharsight Corp., Mountain View, Calif.), commercial software designed for the analysis of PK data. The PK modeling was based on a non-compartmental model with gradual input into the central compartment. Computation of the area under the curve (AUC) was based on the sum of trapezoidal areas for the plotted plasma concentration-time data. AUC and associated parameters were estimated by log-linear regression analysis of the terminal phase.

[4] = Dog pharmacokinetics of the enantiomers after oral dosing of racemic AV1013; format: in vivo
Protocol: Three male beagle dogs were dosed orally with 10 mg/kg racemic AV1013 via gavage. AV1013 was dissolved in water at 5 mg/ml and dosed via gavage at a volume of 2 ml/kg. Blood samples were collected via the jugular vein at 5, 15 and 30 minutes, 1, 2, 4, 6, 8, and 24 hours post dosing.
as §1, §2

[5] = target: T1, rhMIF (recombinant human Macrophage migration Inhibitory Factor) (Homo sapiens, UniProt P14174); test: MIF-induced migration of human peripheral blood monocytes (PBMCs); format: cell-based; conditions: rhMIF 90 nM, dilution series of inhibitor
T1 sequence (P14174 2-115 limits assumed): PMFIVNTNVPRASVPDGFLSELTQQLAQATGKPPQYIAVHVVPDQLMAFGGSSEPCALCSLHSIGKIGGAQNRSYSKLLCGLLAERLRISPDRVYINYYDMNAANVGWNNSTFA
Protocol: The chemo attractant activities of rhMIF (recombinant human Macrophage migration Inhibitory Factor) and the effect of inhibitors were measured using human peripheral blood monocytes (PBMCs) isolated from whole blood by centrifugation on Histopaque-1077 (Sigma). The cells were washed in RPMI-1640, diluted to 1×10^6 cells/ml and analyzed immediately. These assays were carried out in 24 well tissue culture plates utilizing 8.0 μm cell culture inserts (Falcon). Recombinant hMIF (90 nM), diluted in RPMI was placed in the cells of a 24 well plate with or without inhibitor (10-fold molar excess or dilution series) and allowed to incubate for 30 min at 37° C., 5% CO2. Washed human monocytes were added to the upper chamber of 8.0 μm cell culture inserts and allowed to incubate for 3 hrs at 37° C., 5% CO2. Cells that migrate through the membrane were fixed in methanol and stained with Geimsa, prior to cell counting using light microscopy.
Results are expressed as the mean number of cells counted per high power field for each of two replicates to obtain statistically significant data. (Legend: −Star=no human MIF, Skull=no human MIF+10 uM (S)-AV1013. See FIGS. 5A and 5B.

[6] = oral 25 mg/kg racemic AV1013, plasma
[7] = oral dosing of racemate, rounded values
[8] = beagle dog, oral 10 mg/kg racemic AV1013, plasma
[9] = dog, oral dosing of racemate, rounded values

With `NCC1(CC(=O)O)CCCCC1` [Gabapentin, reference compound] the “% Change from Control” value (formalin paw model) was −83% and the “Licking Score (Mean +/− SEM)” value (formalin paw model; p < 0.01) was 2.6 +/− 0.8 *.
With `CC(C)c1nn2ccccc2c1C(=O)[C@H](C)N.Cl` [(S)-AV1013.HCl, (S)-2-Amino-1-(2-isopropylpyrazolo[1,5-a]pyridin-3-yl)propan-1-one hydrochloride] the “degree of racemization on storage” value ([1]; hydrochloride salt, optimal storage and handling conditions to minimize exposure to moisture) was “approximately 2%”.
For `CC(N)C(=O)c1c(C(C)C)nn2ccccc12` (racemic) [AV1013, 2-amino-1-(2-isopropylpyrazolo[1,5-a]pyridin-3-yl)propan-1-one], the “stability / racemization in solution” value ([1]; free base (or hydrochloride salt where stated), in solution) was “unstable”, the “in vivo activity in a rat model of neuropathic pain” value [2] was “significant in vivo activity” and the “inhibition of the Rolipram binding site” value (Rolipram binding site) was 43%.
With `CC(C)c1nn2ccccc2c1C(=O)[C@@H](C)N` [(R)-AV1013] the AUC last [3, 6] was 340 ng·h/mL, the Cmax [3, 6] was 190 ng/mL and the “calculated area under the curves (AUC)” value [3, 7] was 300 ng·h/mL. The “mean peak plasma levels (Cmax)” value [3, 7] was 200 ng/mL, the AUC last [4, 8] was 7640 ng·h/mL and the Cmax [4, 8] was 1140 ng/mL. The “calculated area under the curves (AUC)” value [4, 9] was 7600 ng·h/mL, the “mean peak plasma levels (Cmax)” value [4, 9] was 1100 ng/mL and the “in vivo activity in a rat model of neuropathic pain” value [2] was “little or no in vivo activity”. The “attenuation of mechanical allodynia (50% paw withdrawal threshold)” value ([2]; rat CCI, oral 100 mg/kg, 2 hours post-dosing) was “essentially no activity” and the “antagonism of MIF-induced cell migration” value [5] was “antagonize MIF-induced macrophage migration in a dose-dependent fashion; also recorded: antagonize MIF-induced mononuclear cell migration in a similar dose dependent fashion”.
